Source: patent US4574126A, “Pyridine derivatives histamine H2 -antagonists” (Smith Kline & French Laboratories Limited, priority 1982, dated 1986)

Columns and labels:
histamine H2 -receptors [1] = biological target: T1, histamine H2 -receptors (Cavia porcellus, UniProt P47747); test: guinea pig atrium test: inhibition of histamine-induced tachycardia in isolated right atrium; type: biochemical; conditions: histamine-induced rate increase, 60 min contact, read-out: pA2 (converted)
T1 construct: a spontaneously beating isolated portion of the guinea pig right atrium; from tissue; host or cells: isolated guinea pig right atrium
T1 sequence (P47747 whole entry): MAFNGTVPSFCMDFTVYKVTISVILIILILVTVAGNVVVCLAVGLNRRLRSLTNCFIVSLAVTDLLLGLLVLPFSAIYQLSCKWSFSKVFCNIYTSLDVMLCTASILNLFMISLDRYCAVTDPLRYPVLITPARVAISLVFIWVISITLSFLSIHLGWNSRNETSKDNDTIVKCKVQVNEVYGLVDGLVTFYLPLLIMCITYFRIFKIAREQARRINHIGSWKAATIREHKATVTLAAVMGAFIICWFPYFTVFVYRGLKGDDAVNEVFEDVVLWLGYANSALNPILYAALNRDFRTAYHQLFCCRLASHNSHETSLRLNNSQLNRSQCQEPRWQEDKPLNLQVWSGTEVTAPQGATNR
Method: In the guinea pig atrium test a spontaneously beating isolated portion of the guinea pig right atrium is secured under tension (300 mg) between an anchorage and a transducer in a 15 ml tissue bath and immersed in McEwens solution with constant aeration at a temperature of 37° C. The output from the transducer is amplified. Output is in turn fed to a flat bed recorder. Measured amounts of histamine are added to the tissue bath so that the histamine concentration increases step-wise until the rate of beating reaches a maximum. The tissue bath is washed out and filled with fresh McEwens solution containing compound under test. The solution is left in contact with the tissue for 60 min. and measured amounts of histamine are added again until a maximum rate is recorded. The assay is repeated with increasing concentrations of test compound and the dose of histamine giving 50% of maximum rate is noted. A dose ratio (DR) was calculated by comparing the concentrations of histamine required to produce 50% maximum response in the absence and in the presence of the antagonist. A plot of Log DR-1 against LOG D (the concentration of compound under test) is made and the point of intersection with the Log (DR-1) ordinate is taken as the measure of the activity (pA2 value).

histamine H2 -receptors [2] = biological target: T2, histamine H2 -receptors (Rattus norvegicus, UniProt P25102); test: lumen-perfused rat test: inhibition of histamine-stimulated secretion of gastric acid; type: in vivo; conditions: iv, lumen-perfused stomachs of rats anaesthetised with urethane, read-out: ED50 (for inhibiting sub-maximal acid secretion by 50%)
T2 construct: histamine-stimulated secretion of gastric acid from the lumen-perfused stomachs of rats anaesthetised with urethane; from tissue; host or cells: lumen-perfused stomach of urethane-anaesthetised female Sprague-Dawley rats (in vivo)
T2 sequence (P25102 whole entry, the tested form may be a part): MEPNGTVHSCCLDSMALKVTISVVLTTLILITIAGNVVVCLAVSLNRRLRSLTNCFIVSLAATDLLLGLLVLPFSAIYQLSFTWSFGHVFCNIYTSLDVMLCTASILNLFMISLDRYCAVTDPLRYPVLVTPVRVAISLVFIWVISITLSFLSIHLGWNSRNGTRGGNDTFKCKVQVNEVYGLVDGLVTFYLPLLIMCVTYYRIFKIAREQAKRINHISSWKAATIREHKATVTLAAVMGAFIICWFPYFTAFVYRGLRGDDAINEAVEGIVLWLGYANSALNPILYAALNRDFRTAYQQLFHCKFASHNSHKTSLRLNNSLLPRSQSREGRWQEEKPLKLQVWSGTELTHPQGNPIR
Source text: These are actions of histamine which, according to Ash and Schild, Brit. J. Pharmac. Chemother. 27 247 (1966), are not mediated by histamine H1 -receptors.
Inhibition of histamine-stimulated secretion of gastric acid can be measured by using a lumen-perfused stomachs of rats anaesthetised with urethane using the following modification of the method of Ghosh and Schild, Brit. J. Pharmac. Chemother. 13 54 (1958):
Female Sprague-Dawley rats (160-200 g) are starved overnight and anaesthetised with urethane given intraperitoneally in one dose (200 mg). The trachea and jugular veins are both cannulated and a mid-line incision is made in the abdomen exposing the stomach which is cleared from connective tissue. […] The effluent is passed over a micro-flow pH electrode and recorded by a pH meter fed to an anti-log unit and flat-bed recorder. The basal output of acid secretion from the stomach is monitored by measurement of the pH of the perfusion effluent. A sub-maximal dose of histamine is continuously infused into the jugular vein and produces a stable plateau of acid secretion and the pH of the perfusion effluent is determined when this condition is obtained. […] The difference in acid secretion between basal output and the histamine stimulated plateau level and the reduction of acid secretion caused by the test compound are calculated from the difference in pH of the perfusion effluent. […]

Row | Compound | Kb (histamine H2 -receptors [1]) | ED50 (histamine H2 -receptors [2])
1 | CNC(=C[N+](=O)[O-])NCCSCc1cc(CN(C)C)ccn1 [Example 2, 1-nitro-2-methylamino-2-[2-(4-dimethylaminomethyl-2-pyridylmethylthio)ethylamino]-ethylene] | < 100 nM | < 0.1 µmol/kg
2 | CNC(=NCCSCc1cc(CN(C)C)ccn1)NC#N [Example 1, N-cyano-N'-methyl-N"-[2-(4-dimethylaminomethyl-2-pyridylmethylthio)ethyl]-guanidine] | < 100 nM | < 0.1 µmol/kg
